The values below come from patent US20250312320A1, “METHOD AND TREATMENT FOR OSTEOARTHRITIS AND DISEASES OF CHONDROCYTE HYPERTROPHY” (The Royal Veterinary College, priority 2022, published 2025).

Structures are written as SMILES. Entries after “also recorded” stand apart in the source; their conditions may differ.

In assay [1] the test system is C57/BL-6 bone marrow derived osteoclasts. Briefly: Primary osteoclast number and resorption on dentin discs. The class given is cell-based, mouse. Particulars: 1 μM, N=8. The method, then:
Osteoclasts were isolated from the bone marrow of the long bones of 8-week old C57/BL-6 mice and cultured for 24 hours in osteoclast basal media (MEM supplemented with 10% FBS, 2 mM L-glutamine, 1% Ab/Am). After 24 hours, 1×10^6 osteoclasts were seeded onto dentin discs in osteoclast differentiation media (basal media supplemented with 100 nM PGE2, 200 ng/ml MCSF, 3 ng/ml RANKL pH 7.3) for 24 hours before addition of 1 μM BI1347 or DMSO for 3 days (N=8). On day 5 of culture, osteoclast resorption was initiated by addition of 10 mM hydrochloric acid to acidify differentiation media to pH 7.0 for 2 days. On day 7, discs were fixed in 2.5% glutaraldehyde, tartrate resistant acid phosphatase (TRAP) stained and imaged using Axiovert Microscope at ×10 magnification to observe osteoclast resorption.
Pre-osteoclast and osteoclast numbers were counted using the automated counting method developed by Davies et al. 2021 (currently under review) using Ilastik software in Image J (Fiji, US). Resorption area on each disc was manually counted and analysed using Image J software.

Assay [2] relates to primary equine chondrocytes. The experiment in a line: Primary equine chondrocyte micromass treated with BI1347: gene expression. Type of assay: cell-based. Particulars: 1 μM. The method, then:
(§1) Articular cartilage was isolated, placed into a petri dish containing phosphate buffer saline (PBS) supplemented with 2% Ab/Am (PBS-Ab/Am) and transferred to a laminar flow hood for processing. Cartilage shavings were minced using a sterile scalpel to approximately 1 mm^3 and washed in fresh PBS-Ab/Am by centrifugation at 500×g for 10 minutes. Supernatant was removed and the cartilage pellet resuspended in 5 ml TrypLE™ (Gibco) before incubation at 37° C. for 10 minutes with gentle agitation. Dissociated cartilage fragments were pelleted and washed to remove excess TrypLE and resuspended in DMEM-complete media (DMEM/F12 (Gibco), 1% Ab/Am, 10% FBS) supplemented with 2 mg/ml Collagenase Type II and incubated overnight at 37° C. with gentle agitation. The cartilage digest was pelleted, washed and subsequently resuspended in DMEM-complete. Released cells were counted using a haematocytometer and seeded at 10,000 cells per cm^2. The cultures were incubated at 37° C., 5% CO2 in a humidified incubator for 2 days before refreshing DMEM-complete every 2 days until confluency. For differentiation experiments, primary chondrocytes were differentiated in DMEM/F12 containing 2% FBS, 1% Ab/Am, 1× Insulin-Transferrin-Selenium premix, 10 ng/ml TGFβ3 (primary chondrocyte differentiation media).
For primary equine chondrocytes, chondrocytes were seeded in 10 μl micromasses as above and differentiated for 14 days in presence of primary chondrocyte differentiation media supplemented with 1 μM BI1347 before processing for gene expression analysis as described above.

For assay [3], the system named is primary equine articular chondrocytes. Briefly: Primary equine articular chondrocytes in chondrogenesis and IL1β OA disease model: gene expression. Type of assay: cell-based. Particulars: 100 nM, N=2. The method, then: as §1
(§2) Additional experiments were carried out on primary chondrocytes (equine, canine and human) and ihMSC (TERT immortalised human mesenchymal stromal cell line) to investigate whether CDK8i protects from IL-1β induced degradation when added throughout the entirety of differentiation/IL-1β treatment. Briefly, ihMSCs were seeded at a density of 5×10^4 cells per 10 μl micromass and differentiated in ihMSC chondrogenic media (1% FBS, 1% Ab/Am, 1× Insulin-Transferrin-Selenium premix, 10 μM Y-27632, 100 nM dexamethasone, 50 μg/ml ascorbic acid, 20 ng/ml TGF-β3 (Peprotech)). Primary chondrocytes were seeded at 2.7×10^5 cells per 10 μl micromass and differentiated in primary chondrocyte differentiation media. All micromasses were differentiated for 12 days in the presence of 100 nM […] or DMSO. Some micromasses were processed for gene expression analysis/alcian blue staining on day 12, whilst others were treated with IL-β media (1% FBS, 1% Ab/Am, 10 ng/ml IL-1B) and CDK8i for 48-hours before processing for alcian blue staining/gene expression analysis on day 14 as previously described.

Assay [4] deals with ihMSC (TERT immortalised human mesenchymal stromal cell line). The experiment in a line: ihMSC micromasses in chondrogenesis and IL1β OA disease degradation model. The class given is cell-based. Particulars: 100 nM. The method, then:
as §2

Assay [5] has as its system primary canine articular chondrocytes. Briefly: Primary canine articular chondrocytes in chondrogenesis and IL1β OA disease model: gene expression. Type of assay: cell-based. The conditions noted are these: 100 nM. The method, then: as §1, §2
Assay [6] relates to THP-1 derived macrophages. Briefly: LPS stimulated THP-1 derived macrophages: IL-1β ELISA of supernatant. The class given is cell-based, human. Particulars: 100 nM, LPS 24 hrs. The method, then:
THP-1 monocytes were differentiated into macrophages via treatment with 50 ng/ml phorbol 12-myristate 13-acetate (PMA) in THP-1 growth media (RPMI-1640, 100 μg/ml Primocin, 10% FBS, 0.05 mM β-mercaptoethanol) for 48 hours. Macrophages were then washed twice to remove PMA containing media before a 1-hour pretreatment with 1 μM BI1347 or 100 nM MSC2530818. Inflammatory stimulation was then initiated via the addition of lug/ml lipopolysaccharide (LPS) for 24 hours in the presence of 1 μM BI1347 or 100 nM MSC2530818. Gene expression analysis was subsequently carried out as previously outlined. For MSC2530818 treated/LPS stimulated cells, media supernatant was used for IL-1β cytokine analysis quantification via ELISA (PeproTech, ABTS Human IL-1β development ELISA) as per manufacturer instructions.
In general terms: In an ELISA, binding on a coated surface is turned into a signal by an enzyme label.

In the case of `CN(C)C(=O)Cn1cc(-c2ccc(-c3cncc4ccccc34)cc2)cn1` [BI1347], in assay [1], the “mature osteoclast number vs DMSO” value is reported as “no effect; also recorded: no change”; the “osteoclast resorptive activity, reduction vs DMSO” value is on record as 2.3 fold; the “pre-osteoclast number vs DMSO” value is listed as “no effect; also recorded: no change”. Moreover, in assay [2] (day 14), the “ACAN expression, increase vs DMSO” value is on record as 14 fold and the “RUNX2 expression vs DMSO” value is “identical; also recorded: no increase”. Besides, in assay [2] (day 14 (N.S)), the “SOX9 expression, increase vs DMSO” value was found to be 1.5 fold. The “COL2A1 expression, increase vs DMSO” value in assay [2] (day 14, N=1) came to 9 fold.
Consider `Cc1n[nH]c2ncc(C(=O)N3CCC[C@H]3c3ccc(Cl)cc3)cc12` [MSC2530818], for which the “ADAMTS5 gene expression, reduction vs DMSO” value in assay [3] (OA disease model (+IL1β)) is 2.7 fold; in assay [4] it was 1.3 fold; in assay [5] (disease model (+IL1β), ns), 1.4 fold. For the same molecule, the “CNMD gene expression, increase vs DMSO” value in assay [3] (OA disease model (+IL1β)) is listed as 70 fold; in assay [3] (chondrogenic (−IL1β)) it was 41 fold; in assay [5] (OA disease model (+IL1β), N=1), 6 fold; in assay [5] (chondrogenic (−IL1β), N=1), 7 fold. Besides, the “COL2A1 gene expression, increase vs DMSO” value is recorded as 11 fold in assay [3] (OA disease model (+IL1β)); 13 fold in assay [5] (OA disease model (+IL1β), ns); 5 fold in assay [5] (chondrogenic (−IL1β), N=1). The “SMOC2 gene expression, increase vs DMSO” value turned out to be 3 fold in assay [3] (OA disease model (+IL1β)); 2.3 fold in assay [3] (chondrogenic (−IL1β)); 2 fold in assay [5] (OA disease model (+IL1β), N=1); 2 fold in assay [5] (chondrogenic (−IL1β), N=1). Moreover, the “ACAN gene expression, increase vs DMSO” value is given as 1.8 fold in assay [3] (OA disease model (+IL1β), ns); 2 fold in assay [3] (chondrogenic (−IL1β), ns); 1.6 fold in assay [4] (OA disease model (+IL1β)); 3 fold in assay [4] (chondrogenic (−IL1β)); 3 fold in assay [5] (OA disease model (+IL1β), N=1); 2 fold in assay [5] (chondrogenic (−IL1β), N=1). Besides, the “MATN3 gene expression vs DMSO” value in assay [3] (OA disease model (+IL1β), ns) is recorded as 2 fold; in assay [3] (chondrogenic (−IL1β), ns), 2 fold. Moreover, the “TIMP4 gene expression, increase vs DMSO” value in assay [3] (OA disease model (+IL1β), ns) came to 1.14 fold; in assay [5] (OA disease model (+IL1β), ns), 1.1 fold; in assay [5] (chondrogenic (−IL1β), N=1) it was 4 fold. Moreover, the “TIMP4 gene expression vs DMSO” value in assay [3] (chondrogenic (−IL1β)) is “no change”. Also, in assay [3] (chondrogenic (−IL1β), ns), the “COL2A1 gene expression, decrease vs DMSO” value amounted to 1.25 fold. For the same molecule, the “MATN3 gene expression, increase vs DMSO” value in assay [4] (OA disease model (+IL1β)) turned out to be 3 fold; in assay [4] (chondrogenic (−IL1β)) it was 4 fold; in assay [5] (OA disease model (+IL1β), N=1) it was 6 fold; in assay [5] (chondrogenic (−IL1β), N=1), 2 fold. Also, the “glycosaminoglycan (GAG; alcian blue stain) intensity vs DMSO” value in assay [4] (both conditions (−IL1β and +IL1β)) was “increase”. The “IL1β production / secretion into culture media, reduction” value in assay [6] came out at 1.5 fold.
